# Experimental data from PubChem BioAssay (NCI).
#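 1) Cells in 96-well plates. 2) Compound, 48 h, 5 concentrations. 3) Linear interpolation between surrounding doses. 4) Unreached endpoint = highest concentration. GI50 is the concentration that inhibits growth by half. The concentration for full growth arrest is given as TGI.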
# Assays:
# Test in all cases: NCI tumour cell line growth inhibition, 48 h
# [1] = system: HOP-92 NSCLC
# [2] = system: UACC-257 melanoma
# [3] = system: HL-60(TB) leukemia
# [4] = system: OVCAR-3 ovarian
# [5] = system: 786-0 renal
# [6] = system: NCI/ADR-RES ovarian
# [7] = system: UACC-62 melanoma
# [8] = system: KM12 colon
# [9] = system: PC-3 prostate
# [10] = system: MOLT-4 leukemia
SMILES,TGI [1] [µM],TGI [2] [µM],TGI [3] [µM],TGI [4] [µM],TGI [5] [µM],TGI [6] [µM],TGI [7] [µM],TGI [8] [µM],TGI [9] [µM],GI50 [1] [µM],GI50 [2] [µM],GI50 [3] [µM],GI50 [10] [µM],TGI [10] [µM],GI50 [4] [µM],GI50 [6] [µM],GI50 [7] [µM],GI50 [8] [µM],GI50 [9] [µM]
Nc1cccc2cc(S(=O)(=O)Nc3ccc(C(=O)O)cc3)ccc12,> 100,> 100,> 100,> 100,> 100,> 100,> 100,> 100,> 100,–,–,–,–,–,–,–,–,–,–
CC[n+]1c(/C=C/c2ccc(N(CCCl)CCCl)cc2)ccc2cc(Br)ccc21,–,–,–,2.22,10.1,–,7.55,3.3,–,92.7,95.8,86.2,109,–,–,–,–,–,–
CCN(CC)CCSc1nc2c([N+](=O)[O-])cccc2[nH]1,> 100,> 100,> 100,> 100,–,–,> 100,> 100,–,–,–,–,–,> 100,–,–,–,–,–
CNC1=C(C)C(=O)C2=C(C1=O)C(COC(N)=O)C1(OC)C3NC3CN21 (configuration not stated),–,3.64,> 100,21.6,–,–,1.55,2.04,41.8,–,–,–,–,> 100,–,–,–,–,–
N=C1SCCS1,> 100,> 100,> 100,> 100,> 100,–,> 100,> 100,–,–,–,–,–,> 100,–,–,–,–,–
O=C(Nc1ccc(-n2cc(-c3ccncc3)c(-c3ccc(O)c(Cl)c3)n2)cc1)c1ccc(Cl)c(Cl)c1,20.5,> 32.5,> 32.5,> 32.5,–,> 32.5,> 32.5,> 32.5,> 32.5,0.819,> 32.5,1.39,1.37,> 32.5,2.11,2.02,2.48,1.63,1.35
NC(N)=NCCCS(=O)(=O)Nc1ccc(Nc2c3ccccc3nc3cc([N+](=O)[O-])ccc23)cc1,28.5,68.1,> 82.4,66.4,53.2,58.8,51.7,51.4,67.9,–,–,–,–,43.6,–,–,–,–,–
Cc1ccc(CCCC(=O)O)cc1C,> 100,> 100,> 100,> 100,> 100,> 100,> 100,> 100,> 100,–,–,–,–,> 100,–,–,–,–,–
N=C(N)c1ccc(-c2ccc(-c3ccccc3)o2)cc1,4.14,4.56,4.42,13.4,–,5.85,–,3.58,5.97,1.95,2.21,1.93,–,–,3.3,2.2,–,1.86,2.28
O=C(c1no[n+]([O-])c1C(=O)c1csc2ccccc12)c1csc2ccccc12,5.01,16.3,0.0737,3.78,0.713,56.3,25.7,18.7,8.33,–,–,–,–,3.17,–,–,–,–,–
CC(C)c1cccc(C(C)C)c1NC(=S)Nc1ccccc1,> 100,> 100,32.4,> 100,–,–,> 100,> 100,–,–,–,–,–,> 100,–,–,–,–,–
N/C(=N/O)c1cn(C2OC(CO)C(O)C2O)c2ncnc(NO)c12 (configuration not stated),> 45.4,4.4,0.76,–,> 100,7.19,1.66,–,3.17,–,–,–,–,0.395,–,–,–,–,–
CSc1nc(NC2OC(CO)C(O)C(O)C2O)c(N)c(=O)n1C (configuration not stated),> 100,> 100,> 100,> 100,–,> 100,> 100,> 100,–,–,–,–,–,> 100,–,–,–,–,–
COc1cccc(/C=N/[N-]C(N)=O)c1[O-].[OH3+].[Zn+2],> 100,> 100,–,> 100,> 100,–,> 100,> 100,–,–,–,–,–,> 100,–,–,–,–,–
NC(=O)OCc1c(O)c2c(c(O)c1COC(N)=O)C(=O)C=CC2=O,> 100,> 100,> 100,> 100,–,–,> 100,> 100,–,–,–,–,–,> 100,–,–,–,–,–
CCCCCCCCCCCCCCCc1ccc(C(=O)C[n+]2ccccc2)cc1,3.93,3.51,2.52,3.64,–,–,–,1.59,3.77,0.295,1.7,0.531,–,–,1.79,–,–,0.523,1.23
COc1ccc(C2C(Cl)C(=O)N2NC(=O)c2ccc(NC(C)=O)cc2)cc1OC (configuration not stated),> 100,> 100,> 100,> 100,–,–,> 100,> 100,–,–,–,–,–,> 100,–,–,–,–,–
CC(C)=CCC/C(C)=C/CC/C(C)=C/C(O)c1ccccc1 (configuration not stated),–,35.6,43.8,36.3,–,–,30.9,51.8,–,–,–,–,–,–,–,–,–,–,–
